# Laboratory results: ChEMBL document CHEMBL1144678, “Thiahomoisocitrate: a highly potent inhibitor of homoisocitrate dehydrogenase involved in the alpha-aminoadipate pathway” (Bioorg Med Chem, 2008)
# Assays:
# [1] = Inhibition of Saccharomyces cerevisiae homoisocitrate dehydrogenase
# [2] = tested on: Saccharomyces cerevisiae; assay: Activity of Saccharomyces cerevisiae homoisocitrate dehydrogenase
SMILES,Ki [1] [µM],Km [2] [µM],kcat [2] [s⁻¹]
O=C(O)CS[C@H](C(=O)O)[C@@H](O)C(=O)O,0.097,–,–
O=C(O)CO[C@H](C(=O)O)[C@@H](O)C(=O)O,10,20,0.59
O=C(O)CN[C@H](C(=O)O)[C@@H](O)C(=O)O,–,150,2
O=C(O)CSCC(=O)C(=O)O,12,–,–
